The values that follow are results of earlier work, collected in publication PMC3176332 (European journal of medicinal chemistry, 2009).

The data set relates to ERβ. The settings on record: relative to estradiol.

For the molecule `O=c1c(-c2ccc(O)cc2)coc2cc(O)cc(O)c12` [compound 2, genistein], the ERβ binding selectivity was 20 fold.
